# Measurements from patent publication US4122184A, “Benzimidazole insecticides” (priority 1977, dated 1978).
# Where two headings read alike, the source gives them in different places.
# Tests used:
# [1] = test system: Armyworm, P. Unipuncta; assay: Field trial, stomach poison test; assay type: in vivo
# Procedure, shortened: (§1)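 Stomach-poison feeding test on leaves taken from the infested plant and treated by atomizer spraying at 10 psi or by dipping, then air-dried. Dishes hold five or ten insects, with one or two replicates per rate; reported values average mortality on a 0 to 9 rating scale, read at 24, 48 and 72 hours.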
# [2] = test system: Eastern Tent Caterpillar; assay: Field trial, stomach poison test; assay type: in vivo
# Procedure, shortened: as §1
# [3] = test system: Bagworms; assay: Field trial, contact poison test; assay type: in vivo; design: key: 0-9 scale: 0 = 0-10% mortality, 9 = 91-100% mortality
# Text: Infested plants are placed in 6 oz. prescription bottles filled with water to keep them from wilting. Cellucotton is wrapped around the plant stem and squeezed into the bottle neck to prevent the insects from drowning.
# A DeVilbiss Special Atomizer (5004) is used at 10 psi to spray the test plant with different concentrations of compounds. The atomizer is held at arm's length to prevent blowing the insects off the host plant. After treating, the bottles are placed on a table covered with brown wrapping paper to catch the dead insects as they drop from the plant. The plants are spaced so the leaves or plants are not touching one another.
# The results are read at 24, 48, and 72 hours when applicable. The rating scale is 0 to 9 where 0 = 0-10 percent and 9 = 91-100 percent mortality.
# Using the above methods, field trials were carried out against species of 5 orders of insects. The results, which are summarized in the following tables, give the average mortality for the particular insect with a given benzimidazole for each concentration employed. […] These tables contain all results obtained during the summer trials.
# [4] = test system: Eastern Tent Caterpillar; assay: Field trial, topical application; assay type: in vivo
# Procedure, shortened: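 1 μL benzimidazole solution of set microgram content applied topically to larvae or adults. Mortality read at 24, 48 and 72 h where applicable, rated 0-9 (0 = 0-10%, 9 = 91-100%); values are average mortality per concentration.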
# [5] = test system: Two-Spotted Spider Mite (2-SSM); assay: Miticide test, acute mortality, foliar spray; assay type: in vivo, Tetranychus urticae
# Procedure: Each 5 mg. sample of technical compound preweighed at Greenfield was dissolved in 2.5 ml. of acetone and diluted with 247.5 ml. of water containing a combination of […]
# (§2) The treated cuttings were stored in the greenhouse for 24 hours before evaluation under a binocular disecting microscope in the laboratory. In evaluating the results of the miticide test, each treated cutting was removed from the test tube, observed for live and dead mites at 14 × magnification, and returned immediately to the test tube. A scale of 0-9 was used as before.
# The test employing two-spotted spider mites was conducted in similar fashion except that the mites were maintained on squash seedlings or squash cuttings.
# [6] = test system: Citrus Rust Mite (CRM); assay: Miticide test, acute mortality, foliar spray; assay type: in vivo
# Procedure: Citrus cuttings were obtained and prepared for testing within 24 hours prior to inoculation with citrus rust mites. To prepare the cuttings, terminals of branches 12 to 14 inches in length were cut from temple orange trees, immediately placed in tap water and taken into the laboratory. Uniform hardwood cuttings, 3 to 4 inches in length, were cut from the branches, all but one hardened leaf was removed from the cuttings, and the remaining leaf was wiped clean with a cotton pad soaked in 10% ethanol solution. Each cutting was immediately placed in tap water in a test tube with the closed leaf extending out of the test tube. Then, a ring of melted lanolin was applied around the petiole to prevent migration of mites from the leaf. One cutting was used for each replicate.
# When the leaves were dry immediately after cleaning, citrus rust mites were transferred to the test leaves by cutting a heavily infested colony leaf (from a source colony maintained on citrus seedlings) into 20 to 22 sections (approximately 0.25 by 0.5 inches in size) and using forceps to place 1 section on each leaf cutting. As the section became desiccated the mites moved to the whole leaf and in 20 hours the sections were removed from the leaves for treatment application.
# Treatments were applied within 24 hours after inoculation by removing the cuttings from the test tube and submerging the leaves in the treatment solution for 5 seconds by hand and immediately returning the cutting to the test tube. […]
# as §2
# [7] = test system: Asparagus Beetles Larvae; assay: Field trial, contact poison test; assay type: in vivo
# Procedure, shortened: (§3)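 Mortality after direct spraying was scored at 24, 48 and 72 hours where applicable, using a 0–9 rating tied to 10% bands. Plants bearing insects received atomized compound at 10 psi over a range of concentrations.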
# [8] = test system: Corn Earworm; assay: Field trial, contact poison test; assay type: in vivo
# Procedure, shortened: as §3
# [9] = test system: Fall Webworm; assay: Field trial, contact poison test; assay type: in vivo
# Procedure, shortened: as §3
# [10] = test system: Imported Cabbage Worm; assay: Field trial, contact poison test; assay type: in vivo
# Procedure, shortened: as §3
# [11] = test system: Tussock Moth; assay: Field trial (first summer), stomach; assay type: in vivo; settings: 750 ppm
# [12] = test system: Zebra Caterpillar; assay: Field trial (first summer), stomach; assay type: in vivo; settings: 500 ppm
# [13] = test system: American Roach; assay: Field trial (first summer), contact; assay type: in vivo; settings: 500 ppm
# [14] = test system: German Roach; assay: Field trial (first summer), contact; assay type: in vivo; settings: 500 ppm
# [15] = Acute oral toxicity; settings: in vivo, read-out: Est. LD50
# Text: While the compounds of this invention resemble the organic phosphates in being toxic upon ingestion, they differ from the organic phosphates in having a low toxicity when applied to the skin. The following charts give the estimated acute oral and acute dermal toxicities of 2,6-bis(trifluoromethyl)-4-nitrobenzimidazole in several species of mammals.
smiles,measurement,setting,value
"CC(C)OC(=O)n1c(C(F)(F)F)nc2c([N+](=O)[O-])cc(C(F)(F)F)cc21 [I, isopropyl 2,6-bis(trifluoromethyl)-4-nitro-1-benzimidazolecarboxylate]",average mortality rating,[1]; 125 ppm,2
same,average mortality rating,[1]; 250 ppm,4
same,average mortality rating,[1]; 500 ppm,2
same,average mortality rating,[2]; 250 ppm,0 (0-10 percent)
same,average mortality rating,[2]; 500 ppm,0 (0-10 percent)
same,average mortality rating,[2]; 1000 ppm,0 (0-10 percent)
same,average mortality rating,[3]; 125 ppm,1
same,average mortality rating,[3]; 250 ppm,4
same,average mortality rating,[3]; 500 ppm,5
same,average mortality rating,[3]; 750 ppm,2
same,average mortality rating,[3]; 1000 ppm,1
same,average mortality rating,[3]; 1500 ppm,0 (0-10 percent)
same,average mortality rating,[4]; 0.3 μg/μl,0 (0-10 percent)
same,average mortality rating,[4]; 0.6 μg/μl,1
same,average mortality rating,[4]; 1.2 μg/μl,2
same,acute mortality rating,[5]; 6.25 ppm,3
same,acute mortality rating,[5]; 12.5 ppm,2
same,acute mortality rating,[5]; 25 ppm,8
same,acute mortality rating,[5]; 50 ppm,8
same,acute mortality rating,[5]; 100 ppm,8
same,acute mortality rating,"[6]; 6.25 ppm, after 24 hours",5
same,acute mortality rating,"[6]; 12.5 ppm, after 24 hours",7
same,acute mortality rating,"[6]; 25 ppm, after 24 hours",9 (91-100 percent mortality)
same,acute mortality rating,"[6]; 50 ppm, after 24 hours",9 (91-100 percent mortality)
same,acute mortality rating,"[6]; 100 ppm, after 24 hours",9 (91-100 percent mortality)
"O=[N+]([O-])c1cc(C(F)(F)F)cc2nc(C(F)(F)F)[nH]c12 [A, 2,6-bis(trifluoromethyl)-4-nitrobenzimidazole]",average mortality rating,[1]; 125 ppm,9 (91-100 percent mortality)
same,average mortality rating,[1]; 250 ppm,9 (91-100 percent mortality)
same,average mortality rating,[1]; 500 ppm,9 (91-100 percent mortality)
same,average mortality rating,[2]; 250 ppm,0 (0-10 percent)
same,average mortality rating,[2]; 500 ppm,0 (0-10 percent)
same,average mortality rating,[2]; 1000 ppm,0 (0-10 percent)
same,average mortality rating,[7]; 10 ppm,8
same,average mortality rating,[7]; 25 ppm,8
same,average mortality rating,[7]; 50 ppm,9 (91-100 percent mortality)
same,average mortality rating,[8]; 62.5 ppm,0 (0-10 percent)
same,average mortality rating,[8]; 125 ppm,0 (0-10 percent)
same,average mortality rating,[8]; 250 ppm,0 (0-10 percent)
same,average mortality rating,[8]; 500 ppm,0 (0-10 percent)
same,average mortality rating,[8]; 750 ppm,1
same,average mortality rating,[9]; 125 ppm,3
same,average mortality rating,[9]; 250 ppm,5
same,average mortality rating,[9]; 500 ppm,3
same,average mortality rating,[9]; 750 ppm,9 (91-100 percent mortality)
same,average mortality rating,[10]; 125 ppm,3
same,average mortality rating,[10]; 250 ppm,4
same,average mortality rating,[10]; 500 ppm,3
same,average mortality rating,[10]; 750 ppm,7
same,average mortality rating,[3]; 125 ppm,0 (0-10 percent)
same,average mortality rating,[3]; 250 ppm,4
same,average mortality rating,[3]; 500 ppm,4
same,average mortality rating,[3]; 750 ppm,1
same,average mortality rating,[3]; 1000 ppm,0 (0-10 percent)
same,average mortality rating,[3]; 1500 ppm,0 (0-10 percent)
same,average mortality rating,[4]; 0.3 μg/μl,3
same,average mortality rating,[4]; 0.6 μg/μl,1
same,average mortality rating,[4]; 1.2 μg/μl,3
same,insect mortality rating,[11],9 (91-100 percent mortality)
same,insect mortality rating,[12],7
same,insect mortality rating,[13],9 (91-100 percent mortality)
same,insect mortality rating,[14],8
same,LD50,"[15]; guinea pig, male",15 mg/kg
same,LD50,"[15]; mouse, female",27 mg/kg
same,LD50,"[15]; rat, female",19 to 22 mg/kg
same,LD50,"[15]; rat, male",16 to 20 mg/kg
"CCCCCCOC(=O)n1c(C(F)(F)F)nc2c([N+](=O)[O-])cc(C(F)(F)F)cc21 [E, n-hexyl 2,6-bis(trifluoromethyl)-4-nitro-1-benzimidazolecarboxylate]",acute mortality rating,[5]; 6.25 ppm,3
same,acute mortality rating,[5]; 12.5 ppm,2
same,acute mortality rating,[5]; 25 ppm,5
same,acute mortality rating,[5]; 50 ppm,9 (91-100 percent mortality)
same,acute mortality rating,[5]; 100 ppm,9 (91-100 percent mortality)
same,acute mortality rating,"[6]; 6.25 ppm, after 48 hours",4
same,acute mortality rating,"[6]; 12.5 ppm, after 48 hours",8
same,acute mortality rating,"[6]; 25 ppm, after 48 hours",9 (91-100 percent mortality)
same,acute mortality rating,"[6]; 50 ppm, after 48 hours",9 (91-100 percent mortality)
same,acute mortality rating,"[6]; 100 ppm, after 48 hours",9 (91-100 percent mortality)
same,insect mortality rating,[11],5
same,insect mortality rating,[12],5
